Measured values from US4795758A, “5-[2-(pyrrolidin-1-yl)ethoxy]-p-cymene derivatives, the process for the preparation of the said derivatives and drugs in which the said derivatives are present” (priority 1987, dated 1989).
Counter-ions that a name gives are not always drawn. Like-named read-outs stand apart in the source and are kept apart here.

Key:
[1] = Toxicity: 50% lethal dose in mice (p.o. and i.v.); conditions: mouse, in vivo
Description: The following 50% lethal doses were obtained after oral administration (p.o.) and intravenous administration (i.v.) of the substances to mice.

[2] = target: T1, isolated ductus deferens of rats (Rattus norvegicus, UniProt P43140); assay: In vitro α-adrenolytic activity on isolated ductus deferens; conditions: negative log of molar concentration requiring doubled norepinephrine concentration, read-out: pA2, α-blocking action towards norepinephrine on isolated ductus deferens (converted)
T1 construct: Norepinephrine causes contractions of the isolated ductus deferens of rats; from tissue; host or cells: isolated ductus deferens of rats
T1 sequence (P43140 1-466): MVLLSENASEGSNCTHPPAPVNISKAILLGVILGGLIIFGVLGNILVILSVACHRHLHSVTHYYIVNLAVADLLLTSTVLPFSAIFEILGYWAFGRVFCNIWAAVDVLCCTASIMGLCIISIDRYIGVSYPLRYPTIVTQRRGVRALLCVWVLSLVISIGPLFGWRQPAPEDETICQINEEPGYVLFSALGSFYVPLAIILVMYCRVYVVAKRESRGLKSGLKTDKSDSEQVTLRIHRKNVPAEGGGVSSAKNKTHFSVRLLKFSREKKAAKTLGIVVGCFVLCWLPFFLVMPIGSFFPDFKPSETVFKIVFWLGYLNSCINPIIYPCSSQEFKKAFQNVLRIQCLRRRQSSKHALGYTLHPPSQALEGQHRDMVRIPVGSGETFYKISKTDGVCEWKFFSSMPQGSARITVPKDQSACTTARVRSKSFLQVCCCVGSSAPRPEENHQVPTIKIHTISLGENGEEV
Description: (§1) 2.1. - In vitro α-adrenolytic activity
(§2) This was studied on the ductus deferens of rats and on the urethra of rabbits.
(§3) Norepinephrine causes contractions of the isolated ductus deferens of rats and the isolated urethra of rabbits. The presence of α-blocking substances in a bath containing the organ antagonizes these contractions; the use of increasing concentrations of α-blocking substances makes it possible to calculate:
the pA2 of the compounds on the ductus deferens of rats, the pA2 being the negative logarithm of that molar concentration of the product in the presence of which the concentration of norepinephrine has to be doubled in order to obtain the same effect as in the absence of the product; and […]

[3] = system: isolated urethra of rabbits; assay: In vitro α-adrenolytic activity on isolated urethra; conditions: rabbit; negative log of molar concentration halving norepinephrine contraction-inducing activity
Description: as §1, §2, §3
the pD'2 of the compounds on the urethra of rabbits, the pD'2 being the negative logarithm of that molar concentration of the product in the presence of which the contraction-inducing activity of norepinephrine is halved.

[4] = system: toxicity of norepinephrine; assay: In vivo adrenolytic activity: protection against norepinephrine-induced death in rats; conditions: Rattus norvegicus, po; for responders at 50 mg/kg / responders at 25 mg/kg: 0.5 h, 30 min before i.v. norepinephrine 0.4 mg/kg; for responders at 50 mg/kg: 50 mg/kg p.o.; for responders at 25 mg/kg: 25 mg/kg p.o.
Description: Norepinephrine injected intravenously in high doses causes the death of 100% of the animals within 15 minutes of being injected. The cause of death is pulmonary edema due to the arterial hypertension induced by stimulation of the adrenergic receptors. The oral administration of α-adrenolytic substances before-hand enables the toxicity of norepinephrine to be reduced. The products are administered orally at times varying between 30 minutes and 6 hours before the intravenous injection (i.v.) of norepinephrine (0.4 mg/kg).

[5] = system: arterial hypertension induced by norepinephrine; assay: In vivo α-blocking activity in anesthetized rabbits: arterial pressure; conditions: Oryctolagus cuniculus, iv, norepinephrine-induced arterial pressure increase, read-out: ID50 with regard to arterial hypertension
Description: (§4) The "in vivo" α-blocking activity in terms of the urethral and vascular pressures in anesthetized rabbits was investigated by intravenous administration of the products B 1007, B 1024, B 1058, B 1125 and B 1134.
(§5) The intravenous injection of norepinephrine causes a dose-dependent increase in the arterial and urethral pressures in rabbits. α-Blocking substances injected intravenously antagonize these pressure increases as a function of dose. The 50% inhibitory dose (ID50), defined as being the dose of product which causes a 50% […] in the effects of norepinephrine on the arterial and urethral pressures, is calculated.

[6] = system: urethral hypertension induced by norepinephrine; assay: In vivo α-blocking activity in anesthetized rabbits: urethral pressure; conditions: Oryctolagus cuniculus, iv, norepinephrine-induced urethral pressure increase, read-out: ID50 with regard to urethral hypertension
Description: as §4, §5

[7] = system: arterial pressure; assay: Urethral specificity in anesthetized dogs: arterial hypotension; type: in vivo; conditions: i.v., dose causing 20% arterial hypotension
Description: (§6) The effect of products B 1007, B 1024, B 1125 and B 1134, injected intravenously, on the neurogenic urethral hypertension and the arterial pressure was investigated on anesthetized dogs.
(§7) α-Blocking substances antagonize these increases in urethral pressure as a function of dose and cause arterial hypotension through a blocking action on the vascular receptors.
(§8) The dose which causes a 50% inhibition of the effects of stimulation of the hypogastric nerve on the urethral pressure (ID50) and the dose which causes a 20% arterial hypotension (ED20) are calculated.

[8] = system: neurogenic urethral hypertension (stimulation of the hypogastric nerve); assay: Urethral specificity in anesthetized dogs: neurogenic urethral hypertension; type: in vivo; conditions: Canis lupus familiaris, iv, 50% inhibition of effect of hypogastric nerve stimulation on urethral pressure, read-out: Neurogenic urethral hypertension ID50
Description: as §6
Electrical stimulation of the hypogastric nerve causes an increase in the urethral pressure by releasing norepinephrine from the sympathetic fibers of the nerve.
as §7, §8

[9] = intravenous, read-out: LD50 i.v.

Cc1ccc(C(C)C)c(OCCN2CCCC2)c1 [B 1007, 3-[2-(pyrrolidin-1-yl)ethoxy]-p-cymene hydrochloride]
LD50 [1, 9]: 75 mg/kg
LD50 ([1]; oral, read-out: LD50 p.o.): 330 mg/kg
Kb [2]: 0.182 µM
pD'2, α-blocking action towards norepinephrine on isolated urethra [3]: 6.88
responders at 50 mg/kg [4]: 60%
ED50 [5]: 7.63 mg/kg
ED50 [6]: 0.34 mg/kg
Arterial hypotension ED20 [7]: 2 mg/kg
ED50 [8]: 0.35 mg/kg

CC(=O)Oc1cc(C(C)C)c(OCCN2CCCC2)cc1C [B 1024, 2-acetoxy-5-[2-(pyrrolidin-1-yl)ethoxy]-p-cymene hydrochloride]
LD50 [1, 9]: 18 mg/kg
LD50 ([1]; oral, read-out: LD50 p.o.): 100 mg/kg
Kb [2]: 0.105 µM
pD'2, α-blocking action towards norepinephrine on isolated urethra [3]: 6.38
responders at 25 mg/kg [4]: 70%
ED50 [5]: 4.14 mg/kg
ED50 [6]: 0.23 mg/kg
Arterial hypotension ED20 [7]: 8 mg/kg
ED50 [8]: 0.07 mg/kg

Cc1cc(OCCN2CCCC2)c(C(C)C)cc1O [B 1058, 2-hydroxy-5-[2-(pyrrolidin-1-yl)ethoxy]-p-cymene hydrochloride]
LD50 [1, 9]: 17 mg/kg
LD50 ([1]; oral, read-out: LD50 p.o.): 80 mg/kg
Kb [2]: 0.0661 µM
pD'2, α-blocking action towards norepinephrine on isolated urethra [3]: 6.69
responders at 50 mg/kg [4]: 90%
ED50 [5]: 1.22 mg/kg
ED50 [6]: 0.13 mg/kg

CCC(=O)Oc1cc(C(C)C)c(OCCN2CCCC2)cc1C [B 1125]
LD50 ([1]; oral, read-out: LD50 p.o.): ~300 mg/kg
Kb [2]: 0.0724 µM
pD'2, α-blocking action towards norepinephrine on isolated urethra [3]: 6.25
responders at 25 mg/kg [4]: 60%
ED50 [5]: 5.95 mg/kg
ED50 [6]: 0.36 mg/kg
Arterial hypotension ED20 [7]: 12 mg/kg
ED50 [8]: 0.09 mg/kg

CCCCCC(=O)Oc1cc(C(C)C)c(OCCN2CCCC2)cc1C [B 1131]
LD50 ([1]; oral, read-out: LD50 p.o.): ~550 mg/kg
Kb [2]: 0.105 µM
pD'2, α-blocking action towards norepinephrine on isolated urethra [3]: 6.12
responders at 50 mg/kg [4]: 60%

CCCC(=O)Oc1cc(C(C)C)c(OCCN2CCCC2)cc1C [B 1132, 2-butyryloxy-5-[2-(pyrrolidin-1-yl)-ethoxy]-p-cymene hydrochloride]
LD50 ([1]; oral, read-out: LD50 p.o.): ~500 mg/kg
Kb [2]: 0.0447 µM
pD'2, α-blocking action towards norepinephrine on isolated urethra [3]: 6.0
responders at 50 mg/kg [4]: 90%

CCCCCCCCCC(=O)Oc1cc(C(C)C)c(OCCN2CCCC2)cc1C [B 1134]
LD50 [1, 9]: 36 mg/kg
LD50 ([1]; oral, read-out: LD50 p.o.): ~400 mg/kg
Kb [2]: 0.269 µM
pD'2, α-blocking action towards norepinephrine on isolated urethra [3]: 6.23
responders at 100 mg/kg ([4]; 100 mg/kg p.o., 4 h before i.v. norepinephrine 0.4 mg/kg): 100%
ED50 [5]: 6.17 mg/kg
ED50 [6]: 0.48 mg/kg
Arterial hypotension ED20 [7]: 30 mg/kg
ED50 [8]: 0.11 mg/kg

CC(=O)Oc1cc(C(C)C)c(OCCN(C)C)cc1C [Thymoxamine, reference compound]
LD50 [1, 9]: 72.5 mg/kg
LD50 ([1]; oral, read-out: LD50 p.o.): 300 mg/kg
Kb [2]: 0.0562 µM
pD'2, α-blocking action towards norepinephrine on isolated urethra [3]: 7.03
responders at 50 mg/kg [4]: 80%
ED50 [5]: 2.72 mg/kg
ED50 [6]: 0.5 mg/kg
Arterial hypotension ED20 [7]: 0.27 mg/kg
ED50 [8]: 0.09 mg/kg
